{
  "source": "patent US7759101B2",
  "about": "“Ginsenoside glycosidases hydrolyzing ginsenoside sugar moieties and uses thereof” (priority 2000, dated 2010)",
  "key": {"[1]": {"test_system": "Cellobiose-producing enzyme from Clostridium", "assay": "Comparison: hydrolysis of ginsenosides with cellobiose-producing enzyme", "type": "biochemical, Clostridium thermocopiriae", "settings": "substrate 0.5%, pH 5.0, 30° C., 18 hours", "description": "(§1) To observe the differences between the ginsenoside glycosidases of the invention and known exo-cellulases, the ginsenoside glycosidases of the invention were compared with cellulose β-glucosidase (E.C. 3.2.1.21) in two reactions with 0.5% ginsenosides Rb1 or Rd as substrate.\nAn exo-cellulase from Clostridium thermocopiriae (cellobiose-producing enzyme) cleaves cellodextrin to give cellobiose, but cannot hydrolyze diglucosidic bond at C-3 of ginsenoside Rd. So it is completely different from ginsenoside glycosidase III. Therefore, the ginsenoside glycosidases of the invention are enzymes different from known cellulose β-glucosidases and cellobiose-producing enzymes."}, "[2]": {"test_system": "ginsenoside glycosidases from A. niger", "assay": "Hydrolysis of ginsenosides with crude ginsenoside glycosidases from A. niger, products measured by TLC", "type": "biochemical, Aspergillus niger", "settings": "pH 5, 30° C., 18 hours", "procedure": "Aspergillus niger FFCCDL-48 g was cultured in a medium containing 1% ginseng extracts and 3% wheat bran extracts at 30° C. for 54 hours. Cells were removed by centrifugation, after which (NH4)2SO4 powder was added to 2000 ml of the cell-free supernatant with stirring to 65% saturation. The solution was stored overnight at 4° C. and precipitated proteins were collected by centrifugation, resuspended in 80 ml of distilled water and dialyzed against 0.01M acetate buffer pH 5. Insolubles were removed by centrifugation, and the solution was adjusted to 200 ml with 0.01 M acetate buffer pH 5. The crude enzyme solution may be used to hydrolyze ginsenosides or to purify the enzymes.\n100 mg each of ginsenosides Rb1, Rb2, Rc and Rd and 10 mg of ginsenoside Rg3 were dissolved in separate tubes containing 10 ml of 0.01M acetate buffer pH 5. 10 ml of the crude enzyme solution obtained in 1.1 was added to each tube and allowed to react at 30° C. for 18 hours. Then 10 ml of n-butanol was added to stop the reactions. The products were measured by thin layer chromatography (TLC) (Silica gel 60-F254, Merck; chloroform:methanol:water 70:30:5).\nExperiments were carried out to explore the effects of temperature, pH, metal ions and reaction time on the enzyme reaction, in order to further characterize the enzymes.\n100 mg of ginsenoside Rb1 was used in a reaction under the conditions as described in 1.2 and the effect of temperature was shown in Table 2."}, "[3]": {"test_system": "ginsenoside glycosidases from wheat bran", "assay": "Hydrolysis of ginsenosides with ginsenoside glycosidases from wheat bran", "type": "biochemical", "settings": "10 ml of 1% ginsenoside substrate, 40° C., 20 hours", "procedure": "500 g of wheat bran was added to 2500 ml of 0.02 M acetate buffer pH 5 and extracted at 40° C. for 2 hours. 2000 ml of supernatant were obtained by filtration to which (NH4)2SO4 was added gradually with stirring until 70% saturation. The mixture stand at 4° C. overnight. Protein pellets were collected by centrifugation and redissolved in 80 ml of distilled water and dialyzed against 0.02 M acetate buffer pH 5.0. Insolubles were removed by centrifugation and the supernatant was adjusted to a volume of 200 ml to obtain the crude enzyme solution.\n10 ml of the enzyme solution was allowed to react with 10 ml of 1% ginsenoside substrate at 40° C. for 20 hours."}, "[4]": {"test_system": "ginsenoside glycosidase I", "assay": "Hydrolysis of ginsenosides with Fraction 36 (ginsenoside glycosidase I)", "type": "biochemical, Aspergillus niger", "settings": "pH 5.0, 30° C.", "procedure": "10 ml of the enzyme solution obtained in 1.1 was subjected to a DEAE-Cellulose DE-52 column (Pharamcia, 1.5×6.7 cm) to absorb the enzyme protein. The column was then eluted with a NaCl gradient (0.06, 0.12, 0.18, 0.24, 0.3, 0.4, 0.5 and 0.6M).\nFractions 36 and 54 from the DEAE-Cellulose column appeared as one dot on a SDS-polyacrylamide gel, representing the purified enzymes.\nFraction 36 which was eluted with 0.12 M NaCl from the DEAE-Cellulose column was lyophilized and appeared as a single dot with a molecular weight of 51,000 Daltons when running on a SDS-polyacrylamide gel.\nas §1"}, "[5]": {"settings": "Fraction 36, substrates Rb1, Rb2, Rc, Rd 0.5%, Rg3, F2, Rh2, C—K, Rg2 0.05%"}, "[6]": {"settings": "Table 8, ginsenoside glycosidase I, substrate 0.5%, 18 hours"}},
  "data": [
    {"smiles": "CC(C)=CCC[C@](C)(O[C@@H]1O[C@H](CO)[C@@H](O)[C@H](O)[C@H]1O)[C@H]1CC[C@]2(C)[C@@H]1[C@H](O)C[C@@H]1[C@@]3(C)CC[C@H](O[C@@H]4O[C@H](CO)[C@@H](O)[C@H](O)[C@H]4O[C@@H]4O[C@H](CO)[C@@H](O)[C@H](O)[C@H]4O)C(C)(C)[C@@H]3CC[C@]12C", "note": "[Rd, ginsenoside Rd]", "values": [
      {"measurement": "Percentage of Rb1 in the reaction product", "setting": "[1]", "result": 100, "unit": "%"},
      {"measurement": "Percentage of C—K in the reaction product", "setting": "[2]", "result": 25, "unit": "%"},
      {"measurement": "Percentage of F2 in the reaction product", "setting": "[2]", "result": 50, "unit": "%"},
      {"measurement": "Percentage of Rd in the reaction product", "setting": "[2]", "result": 15, "unit": "%"},
      {"measurement": "Percentage of Rh2 in the reaction product", "setting": "[2]", "result": 5, "unit": "%"},
      {"measurement": "Percentage of aglycone in the reaction product", "setting": "[2]", "result": 5, "unit": "%"},
      {"measurement": "Percentage of F2 in the reaction product", "setting": "[3]", "result": 40, "unit": "%"},
      {"measurement": "Percentage of Rd in the reaction product", "setting": "[3]", "result": 60, "unit": "%"},
      {"measurement": "Percentage of C—K in the reaction product", "setting": "[4]; [5]", "result": 25, "unit": "%"},
      {"measurement": "Percentage of F2 in the reaction product", "setting": "[4]; [5]", "result": 50, "unit": "%"},
      {"measurement": "Percentage of aglycone in the reaction product", "setting": "[4]; [5]", "result": 5, "unit": "%"},
      {"measurement": "Percentage of C—K in the reaction product", "setting": "[4]; [6]", "result": 25, "unit": "%"},
      {"measurement": "Percentage of F2 in the reaction product", "setting": "[4]; [6]", "result": 50, "unit": "%"},
      {"measurement": "Percentage of aglycone in the reaction product", "setting": "[4]; [6]", "result": 5, "unit": "%"}
    ]}
  ]
}
